# From US20250122223A1, “HETEROCYCLIC COMPOUNDS AS UBIQUITIN SPECIFIC PROTEASE 7 INHIBITORS” (ALMAC DISCOVERY LIMITED, priority 2022, published 2025)
# How the values were obtained:
# [1] = target: T1, USP7 (Homo sapiens (Human), UniProt Q93009); test: USP7 fluorescence polarisation (FP) assay with ubiquitin-Lys-TAMRA substrate; format: biochemical
# [2] = CLint/CLhep estimates using liver microsomes (mouse); format: in vitro ADME
# Experimental: (§1) Test compounds (final concentration=1 μM; final DMSO concentration=0.1%) were incubated in 0.1M phosphate buffer pH 7.4 with liver microsomes (human, mouse, rat or dog; 0.5 mg of protein/mL) at 37° C. Reactions were started by addition of NADPH in 0.1M phosphate buffer pH 7.4 (final concentration 1 mM). 40 μL aliquots were removed at 3, 6, 10, 15, 20, 30, 40 and 50 minutes. Reactions were quenched in 80 μL of ice-cold methanol. Samples were subsequently frozen overnight then centrifuged at 3500 rpm for 20 minutes at 4° C. The supernatants were removed and transferred into analytical plates and analysed by LC/MS/MS.
# (§2) All samples were analysed on a Waters Acquity I-Class coupled to a Waters Xevo TQD mass spectrometer. A Waters BEH C18 2.1×50 mm 1.7 μm column was used and mobile phases were water and methanol containing 0.1% formic acid as modifier. Analysis was by multiple reaction monitoring and conditions were optimised for each test compound.
# (§3) From a plot of In peak area against time, the gradient of the line is determined.
# (§4) Subsequently, half-life and intrinsic clearance are calculated using the equations below: […]
# (§5) The CLhep was calculated as follows: […]
# (§6) Where CLint (mL/min/kg) is the intrinsic clearance scaled to a whole liver and Qh is hepatic liver blood flow.
# [3] = CLint/CLhep estimates using liver microsomes (dog); format: in vitro ADME
# Experimental: as §1, §2, §3, §4, §5, §6
# [4] = CLint/CLhep estimates using liver microsomes (rat); format: in vitro ADME
# Experimental: as §1, §2, §3, §4, §5, §6
# [5] = Kinetic solubility in PBS buffer; format: physicochemical; conditions: aqueous buffer, kinetic from dmso stock; PBS buffer pH 7.4
# Experimental: Test compounds (5 μL; 10 mM DMSO stock) were added to 245 μL of PBS buffer pH 7.4 (Dulbecco A) in a Millipore MultiScreen® Solubility Filter plate and mixed at 300 rpm at room temperature on a plate shaker for 90 minutes. Meanwhile 5-points calibration curves for each compound were established in a mixture of acetonitrile/PBS buffer (top concentration 200 μM). After filtration and matrix match, the calibration and assay plates were analysed on a BMG Labtech CLARIOstar plate reader (240-400 nm). Final concentration of the test compound in the filtrate was calculated using the slope of the calibration curve.
# [6] = target: T1, USP7; test: Target engagement assay-HTRF, competition with HA-Ub-VPS probe in HEK293 cells stably expressing Flag-tagged USP7; format: cell-based; conditions: HEK293 stable clone M6C5, 2 h treatment; read-out: Cellular target engagement: HEK293 Stable clone M6C5 USP7 IC50
# Experimental: HEK293 cells stably expressing Flag-tagged USP7 were treated with vehicle (DMSO) or compound (using 50 μM starting concentration and 11 dp using 1:3 serial dilution) for 2 h and subsequently lysed on ice and homogenised. Cell lysate and HA-Ub-VPS probe was then added to a white flat bottomed 384 well plate (Greiner) to a total volume of 10 μL and incubated for 40 min. 10 μL of D2 and Tb detection antibodies were subsequently added to give a final assay volume of 20 μL. Following incubation, HTRF were measured using a Pherastar FSX (BMG Labtech) exciting at 337 nm and measuring the emission at 620/665 nm. The HTRF ratiometric signal was derived and subsequently normalised to the lysate only controls. Data were plotted and fitted, and the concentrations resulting in 50% inhibition (IC50) were calculated using the non-linear regression curve fitting model using GraphPad Prism. IC50 values for the inhibitors of the invention are compiled in Table 1 above and represent the average of at least duplicate experiments.
# [7] = Pharmacokinetic (PK) parameters in mouse; format: in vivo, BALB/c mouse; conditions: for AUC(0-inf) / half-life / Vd: blood; for Vd: read-out: Vss
# [8] = CLint/CLhep estimates using liver microsomes (human); format: in vitro ADME
# Experimental: as §1, §2, §3, §4, §5, §6
# [9] = average of at least duplicate experiments, read-out: Biochemical: USP7 IC50
# [10] = biochemical inhibition, read-out: USP7 IC50 activity (Table 3a, classes)
# [11] = biochemical inhibition, unit not given in Table 3b (Table 1 and key of Table 3a use μM), read-out: USP7 IC50 activity (Table 3b)
# T1 sequence (Q93009 whole entry): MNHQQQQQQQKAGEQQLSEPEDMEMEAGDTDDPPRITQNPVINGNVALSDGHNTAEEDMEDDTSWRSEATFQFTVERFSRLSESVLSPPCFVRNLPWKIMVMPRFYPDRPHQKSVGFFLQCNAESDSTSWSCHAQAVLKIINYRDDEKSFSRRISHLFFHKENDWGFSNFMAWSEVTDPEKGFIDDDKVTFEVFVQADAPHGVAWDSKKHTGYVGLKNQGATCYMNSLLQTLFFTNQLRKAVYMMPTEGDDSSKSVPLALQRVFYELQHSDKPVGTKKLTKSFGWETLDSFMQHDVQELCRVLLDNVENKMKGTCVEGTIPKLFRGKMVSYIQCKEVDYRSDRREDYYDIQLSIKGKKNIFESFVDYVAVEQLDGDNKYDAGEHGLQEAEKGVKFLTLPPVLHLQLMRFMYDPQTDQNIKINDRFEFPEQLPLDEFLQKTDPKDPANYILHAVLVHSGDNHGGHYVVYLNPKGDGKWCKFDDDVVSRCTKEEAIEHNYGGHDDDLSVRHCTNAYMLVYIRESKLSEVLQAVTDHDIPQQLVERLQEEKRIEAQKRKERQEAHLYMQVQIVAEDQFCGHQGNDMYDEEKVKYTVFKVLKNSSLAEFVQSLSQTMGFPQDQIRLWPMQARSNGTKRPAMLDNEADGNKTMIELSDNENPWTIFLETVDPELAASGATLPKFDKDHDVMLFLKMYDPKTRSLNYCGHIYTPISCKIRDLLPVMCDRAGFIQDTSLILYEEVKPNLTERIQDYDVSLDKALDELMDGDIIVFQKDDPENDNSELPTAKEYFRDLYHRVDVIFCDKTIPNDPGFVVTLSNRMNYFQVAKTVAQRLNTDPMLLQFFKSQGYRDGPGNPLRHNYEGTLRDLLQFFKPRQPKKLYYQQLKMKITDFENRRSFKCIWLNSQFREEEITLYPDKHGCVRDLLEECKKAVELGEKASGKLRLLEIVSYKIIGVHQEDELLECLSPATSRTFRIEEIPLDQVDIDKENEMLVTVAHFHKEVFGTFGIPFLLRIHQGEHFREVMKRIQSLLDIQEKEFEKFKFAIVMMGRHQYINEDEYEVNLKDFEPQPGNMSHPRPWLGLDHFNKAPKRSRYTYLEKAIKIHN
smiles,measurement,setting,value
"C[C@H]1CN[C@H](c2ccc(-n3c(Cl)cc4c(=O)n(CC5(O)CCN(C(=O)[C@]6(C)C[C@H]6C(F)(F)F)CC5)cnc43)cc2)CO1 (single isomer, unassigned) [Example 32, 6-Chloro-3-((4-hydroxy-1-((1S,2S)-1-methyl-2-(trifluoromethyl)cyclopropane-1-carbonyl)piperidin-4-yl)methyl)-7-(4-((3R,6S)-6-methylmorpholin-3-yl)phenyl)-3,7-dihydro-4H-pyrrolo[2,3-d]pyrimidin-4-one or 6-chloro-3-((4-hydroxy-1-((1R,2R)-1-methyl-2-(trifluoromethyl)cyclopropane-1-carbonyl)piperidin-4-yl)methyl)-7-(4-((3R,6S)-6-methylmorpholin-3-yl)phenyl)-3,7-dihydro-4H-pyrrolo[2,3-d]pyrimidin-4-one]",IC50,[1]; [9],0.048 µM
same,IC50,[1]; [10],< 0.1 µM
same,IC50,[1]; [11],0.048 µM
same,Liver Microsomes: CLhep Mouse,[2],11.5 mL/min/kg
same,Liver Microsomes: CLhep Dog,[3],4.5 mL/min/kg
same,Liver Microsomes: CLhep Rat,[4],6.5 mL/min/kg
same,solubility kinetic at 90 min,[5],197 µM
same,IC50,[6],130 nM
same,CLb,[7]; BALB/c mouse IV 1 mg/kg,28.2 mL/min/kg
same,F,[7]; BALB/c mouse PO 3 mg/kg,116%
same,AUC(0-inf),[7]; BALB/c mouse IV 1 mg/kg,591 ng·h/mL
same,half-life,[7]; BALB/c mouse IV 1 mg/kg,3.5 h
same,Vd,[7]; BALB/c mouse IV 1 mg/kg,5.49 L/kg
same,AUC(0-inf),[7]; BALB/c mouse PO 3 mg/kg,2100 ng·h/mL
same,Liver Microsomes: CLhep Human,[8],5.8 mL/min/kg
"CC[C@H]1CN[C@H](c2ccc(-n3c(Cl)cc4c(=O)n(CC5(O)CCN(C(=O)[C@]6(C)C[C@H]6C(F)(F)F)CC5)cnc43)cc2)CO1 (single isomer, unassigned) [Example 66, 6-Chloro-7-(4-((3R,6S)-6-ethylmorpholin-3-yl)phenyl)-3-((4-hydroxy-1-((1 S,2S)-1-methyl-2-(trifluoromethyl)cyclopropane-1-carbonyl)piperidin-4-yl)methyl)-3,7-dihydro-4H-pyrrolo[2,3-d]pyrimidin-4-one or 6-chloro-7-(4-((3R,6S)-6-ethylmorpholin-3-yl)phenyl)-3-((4-hydroxy-1-((1R,2R)-1-methyl-2-(trifluoromethyl)cyclopropane-1-carbonyl)piperidin-4-yl)methyl)-3,7-dihydro-4H-pyrrolo[2,3-d]pyrimidin-4-one]",IC50,[1]; [9],0.063 µM
same,IC50,[1]; [10],< 0.1 µM
same,IC50,[1]; [11],0.063 µM
same,IC50,[6],74 nM
"CC1(C(=O)N2CCC(O)(Cn3cnc4c(cc(Cl)n4-c4cccc(N5CCOCC5)c4)c3=O)CC2)CC1 [Comparative Example, reference compound]",IC50,[1]; [9],0.19 µM
same,Liver Microsomes: CLhep Mouse,[2],63.9 mL/min/kg
same,Liver Microsomes: CLhep Dog,[3],22.3 mL/min/kg
same,Liver Microsomes: CLhep Rat,[4],27 mL/min/kg
same,solubility kinetic at 90 min,[5],151 µM
same,IC50,[6],> 50000 nM
same,Liver Microsomes: CLhep Human,[8],14.5 mL/min/kg
"C[C@H]1OCCN[C@@H]1c1ccc(-n2c(Cl)cc3c(=O)n(CC4(O)CCN(C(=O)c5ccc(Cl)cc5)CC4)cnc32)cc1 [Example 8, 6-Chloro-3-((1-(4-chlorobenzoyl)-4-hydroxypiperidin-4-yl)methyl)-7-(4-((2R,3R)-2-methylmorpholin-3-yl)phenyl)-3,7-dihydro-4H-pyrrolo[2,3-d]pyrimidin-4-one]",IC50,[1]; [9],0.077 µM
same,IC50,[1]; [10],< 0.1 µM
same,IC50,[1]; [11],0.077 µM
same,IC50,[6],66 nM
"O=C(C[C@H](c1ccccc1)C(F)F)N1CCC(O)(Cn2cnc3c(cc(Cl)n3-c3ccc([C@H]4COCCN4)cc3)c2=O)CC1 (single isomer, unassigned) [Example 82]",IC50,[1]; [9],0.006 µM
same,IC50,[1]; [10],< 0.1 µM
same,IC50,[1]; [11],0.006 µM
same,IC50,[6],9.4 nM
"Cc1cc(-n2c(Cl)cc3c(=O)n(CC4(O)CCN(C(=O)C[C@H](c5ccccc5)C(F)(F)F)CC4)cnc32)ccc1[C@H]1CO[C@H](C)CN1 [Example 14, 6-Chloro-3-((4-hydroxy-1-((R)-4,4,4-trifluoro-3-phenylbutanoyl)piperidin-4-yl)methyl)-7-(3-methyl-4-((3S,6R)-6-methylmorpholin-3-yl)phenyl)-3,7-dihydro-4H-pyrrolo[2,3-d]pyrimidin-4-one]",IC50,[1]; [9],0.018 µM
same,IC50,[1]; [10],< 0.1 µM
same,IC50,[1]; [11],0.018 µM
same,IC50,[6],40 nM
"Cc1cc(-n2c(Cl)cc3c(=O)n(CC4(O)CCN(C(=O)[C@]5(C)C[C@H]5C(F)(F)F)CC4)cnc32)ccc1[C@H]1CO[C@H](C)CN1 (single isomer, unassigned) [Example 62]",IC50,[1]; [9],0.038 µM
same,IC50,[1]; [10],< 0.1 µM
same,IC50,[1]; [11],0.038 µM
same,IC50,[6],100 nM
"C[C@H]1CN[C@H](c2ccc(-n3c(Cl)cc4c(=O)n(CC5(O)CCN(C(=O)c6ccc(F)cc6)CC5)cnc43)cc2)CO1 [Example 21, 6-Chloro-3-((1-(4-fluorobenzoyl)-4-hydroxypiperidin-4-yl)methyl)-7-(4-((3R,6S)-6-methylmorpholin-3-yl)phenyl)-3,7-dihydro-4H-pyrrolo[2,3-d]pyrimidin-4-one]",IC50,[1]; [9],0.11 µM
same,IC50,[1]; [10],0.1 to 0.25 µM
same,IC50,[1]; [11],0.108 µM
same,Liver Microsomes: CLhep Mouse,[2],19.1 mL/min/kg
same,Liver Microsomes: CLhep Dog,[3],4.5 mL/min/kg
same,Liver Microsomes: CLhep Rat,[4],6.5 mL/min/kg
same,solubility kinetic at 90 min,[5],203 µM
same,IC50,[6],180 nM
same,CLb,[7]; BALB/c mouse IV 1 mg/kg,35.1 mL/min/kg
same,F,[7]; BALB/c mouse PO 3 mg/kg,40.3%
same,AUC(0-inf),[7]; BALB/c mouse IV 1 mg/kg,479 ng·h/mL
same,half-life,[7]; BALB/c mouse IV 1 mg/kg,2.09 h
same,Vd,[7]; BALB/c mouse IV 1 mg/kg,3.89 L/kg
same,AUC(0-inf),[7]; BALB/c mouse PO 3 mg/kg,593 ng·h/mL
same,Liver Microsomes: CLhep Human,[8],3.2 mL/min/kg
"CC1(C(=O)N2CCC(O)(Cn3cnc4c(cc(Cl)n4-c4ccc([C@H]5COCCN5)cc4)c3=O)CC2)CC1C(F)(F)F (stereo partly drawn) [Example 83, 6-Chloro-3-((4-hydroxy-1-(1-methyl-2-(trifluoromethyl)cyclopropane-1-carbonyl)piperidin-4-yl)methyl)-7-(4-((S)-morpholin-3-yl)phenyl)-3,7-dihydro-4H-pyrrolo[2,3-d]pyrimidin-4-one]",IC50,[1]; [9],0.028 µM
same,IC50,[1]; [10],< 0.1 µM
same,IC50,[1]; [11],0.028 µM
same,IC50,[6],76 nM
"C[C@H]1CN[C@H](c2ccc(-n3c(Cl)cc4c(=O)n(CC5(O)CCN(C(=O)C6(C)CC6)CC5)cnc43)cc2)CO1 [Example 101, 6-Chloro-3-((4-hydroxy-1-(1-methylcyclopropane-1-carbonyl)piperidin-4-yl)methyl)-7-(4-((3R,6S)-6-methylmorpholin-3-yl)phenyl)-3,7-dihydro-4H-pyrrolo[2,3-d]pyrimidin-4-one]",IC50,[1]; [10],< 0.1 µM
same,IC50,[1]; [11],0.057 µM
